# Laboratory results published in article PMC9266561, “1,3-Benzodioxole Derivatives Improve the Anti-Tumor Efficiency of Arsenicals” (International Journal of Molecular Sciences, 2022).
# Like-named read-outs stand apart in the source and are kept apart here.
# What was measured:
# COS-7 = assay: cells; format: cell-based, African green monkey; conditions: Chlorocebus sabaeus
# PBMC = assay: cells; format: cell-based, rat; conditions: Rattus norvegicus, PBMC
# HeLa = assay: cells; format: cell-based, human; conditions: Homo sapiens, HeLa
# NB4 = assay: cells; format: cell-based; conditions: Homo sapiens
# 4T1 = assay: cells; format: cell-based; conditions: Mus musculus
# Molm-13 = assay: cells; format: cell-based; conditions: Homo sapiens
# cancer cells = assay: MTT assay, cancer cell lines taken together; format: cell-based; conditions: even at a high dosage, Figure S2
# Procedure: The bioactivity of all the synthetic compounds was evaluated by a MTT assay (Table 1, Tables S1 and S2) against two leukemia cell lines, Molm-13 and NB4; two solid tumor cell lines, HeLa (human cervix cell line) and 4T1 (breast cancer cell line); and two normal cell lines, COS-7 (African green monkey kidney cell line) and rat PBMC (peripheral blood mononuclear cell line).
# Cells were cultured in 96-well plates overnight, followed by adding 80 μL of a related medium containing compounds of different concentrations and dissolved in DMSO for 24 h or 48 h. Then, 40 μL of MTT (2.5 mg/mL) was added and the cells were incubated for another 4 h. The cells were then dissolved in 100 μL of 10% SDS solution or DMSO to release and dissolve the purple MTT products, followed by absorbance detection (BioTek, Winooski, VT, USA).
# [1] = COS-7, 24 h, read-out: IC50 COS-7 24 h
# [2] = COS-7, 48 h, read-out: IC50 COS-7 48 h
# [3] = NB-4, 24 h, read-out: IC50 NB4 24 h
# [4] = NB-4, 48 h, read-out: IC50 NB4 48 h
# [5] = 4T1, 24 h, read-out: IC50 4T1 24 h
# [6] = 4T1, 48 h, read-out: IC50 4T1 48 h
# [7] = MOLM-13, 24 h, read-out: IC50 Molm 24 h
# [8] = MOLM-13, 48 h, read-out: IC50 Molm 48 h
# [9] = MOLM-13, 24 h, read-out: IC50 Molm
# [10] = MOLM-13, 48 h, read-out: IC50 Molm
SMILES,IC50 (COS-7; [1]) [nM],IC50 (COS-7; [2]) [nM],"IC50 (PBMC; 24 h, read-out: IC50 PBMC 24 h) [nM]","IC50 (PBMC; 48 h, read-out: IC50 PBMC 48 h) [nM]","IC50 (HeLa; 24 h, read-out: IC50 HeLa 24 h) [nM]","IC50 (HeLa; 48 h, read-out: IC50 HeLa 48 h) [nM]",IC50 (NB4; [3]) [nM],IC50 (NB4; [4]) [nM],IC50 (4T1; [5]) [nM],IC50 (4T1; [6]) [nM],IC50 (Molm-13; [7]) [nM],IC50 (Molm-13; [8]) [nM],"IC50 (NB4; NB-4, 24 h, read-out: IC50 NB4) [nM]","IC50 (NB4; NB-4, 48 h, read-out: IC50 NB4) [nM]",IC50 (Molm-13; [9]) [nM],IC50 (Molm-13; [10]) [nM],anti-proliferation activity to cancer cells (cancer cells),"IC50 (4T1; 4T1, 24 h, read-out: IC50 4T1) [nM]","IC50 (4T1; 4T1, 48 h, read-out: IC50 4T1) [nM]"
"COc1ccc(C(=O)Nc2ccc([As]3SCCCS3)cc2)cc1OC [DAZ2, N-(4-(1,3,2-dithiarsinan-2-yl)phenyl)-3,4-dimethoxybenzamide]",7100,3300,6200,5700,2300,1060,1710,1140,1500,1200,900,750,,,,,,,
"CC(=O)Oc1ccc(C(=O)Nc2ccc([As]3SCCCS3)cc2)cc1 [AZ2, 4-((4-(1,3,2-dithiarsinan-2-yl)phenyl)carbamoyl)phenyl acetate]",2200,2100,5200,4900,800,500,600,600,2000,1000,1100,1000,600 ± 50,600 ± 30,1110 ± 100,1010 ± 20,,,
"O=C(O)c1ccc2c(c1)OCO2 [1,3-benzodioxole derivative, piperonylic acid]",,,,,,,,,,,,,,,,,no anti-proliferation activity,,
"COc1cc(C(=O)Nc2ccccc2[As]2SCCCS2)cc(OC)c1OC [TAZ5, N-(2-(1,3,2-dithiarsinan-2-yl)phenyl)-3,4,5-trimethoxybenzamide]",2000,1800,2200,1540,800,500,200,150,700,700,710,700,,,,,,700 ± 30,700 ± 30
"O=C(Nc1ccc([As]2SCCCS2)cc1)c1ccc(F)cc1 [FZ2, N-(4-(1,3,2-dithiarsinan-2-yl)phenyl)-4-fluorobenzamide]",3500,2200,5500,4700,1200,400,400,300,2300,2200,1200,1000,,,,,,,
"O=C(Nc1ccc([As]2SCCCS2)cc1)c1ccc2c(c1)OCO2 [PZ2, N-(4-(1,3,2-dithiarsinan-2-yl)phenyl)benzo[d][1,3]dioxole-5-carboxamide]",4100,1750,6400,5300,700,440,700,440,2600,3400,1060,750,850 ± 100,,,,,2550 ± 220,3350 ± 420
"CCc1ccc(C(=O)Nc2ccc([As]3SCCCS3)cc2)cc1 [EZ2, N-(4-(1,3,2-dithiarsinan-2-yl)phenyl)-4-ethylbenzamide]",4200,2100,3700,2900,1010,810,410,300,1400,1400,1100,1020,,,,,,1400 ± 120,1400 ± 120
"COc1cc(C(=O)Nc2ccc([As]3SCCCS3)cc2)cc(OC)c1O [HDZ2, N-(4-(1,3,2-dithiarsinan-2-yl)phenyl)-4-hydroxy-3,5-dimethoxybenzamide]",9100,3500,5800,4900,2000,1010,800,500,1000,1010,600,600,,,600 ± 120,600 ± 120,,,
"Cc1ccc(C(=O)Nc2ccc([As]3SCCCS3)cc2)cc1 [MZ2, N-(4-(1,3,2-dithiarsinan-2-yl)phenyl)-4-methylbenzamide]",3400,1210,3400,2700,610,400,400,300,1200,910,1200,800,,,,,,,400 ± 110
"O=C(Nc1ccccc1[As]1SCCCS1)c1ccc2c(c1)OCO2 [PZ5, N-(2-(1,3,2-dithiarsinan-2-yl)phenyl)benzo[d][1,3]dioxole-5-carboxamide]",1010,820,5000,4500,260,140,260,140,400,830,270,240,300 ± 30,200 ± 20,,,,,
"COc1ccc(C(=O)Nc2ccccc2[As]2SCCCS2)cc1OC [DAZ5, N-(2-(1,3,2-dithiarsinan-2-yl)phenyl)-3,4-dimethoxybenzamide]",1610,1270,4100,3500,810,550,800,510,600,500,450,320,,,,,,,
"COc1cc(C(=O)Nc2ccc([As]3SCCCS3)cc2)cc(OC)c1OC [TAZ2, N-(4-(1,3,2-dithiarsinan-2-yl)phenyl)-3,4,5-trimethoxybenzamide]",9100,5200,7300,6500,2000,1040,1000,600,3500,2200,1600,1500,,,,,,,
"O=C(Nc1ccccc1[As]1SCCCS1)c1ccc(F)cc1 [FZ5, N-(2-(1,3,2-dithiarsinan-2-yl)phenyl)-4-fluorobenzamide]",1100,800,2400,1820,350,150,150,150,700,600,500,500,150 ± 100,150 ± 20,500 ± 10,500 ± 20,,,
"O=C(Nc1ccc([As]2SCCCS2)cc1)c1ccc2c(c1)OC(F)(F)O2 [PFZ2, N-(4-(1,3,2-dithiarsinan-2-yl)phenyl)-2,2-difluorobenzo[d][1,3]dioxole-5-carboxamide]",6000,3500,6300,5700,500,150,500,300,1000,800,800,700,,,,,,,
